Earlier results as cited in patent US10864304B2, “Anti-infective antimicrobial-containing biomaterials” (ATRIUM MEDICAL CORPORATION, priority 2009, dated 2020).

Tested on: bacteria
Details: previously reported (K. C. Chaw et al. 2005)

In the case of `[Ag]` [silver], the “amount of silver needed to produce an antimicrobial effect” value is listed as about 50 ppb.
